In patent publication US9540392B2, “Thienopyrimidines” (BAYER PHARMA AKTIENGESELLSCHAFT, priority 2012, dated 2017):

Biological target: T1, human full-length MKNK1 (Homo sapiens, UniProt Q9BUB5, T385D)
T1 construct: GST (N); purchased Carna Biosciences 02-145; host or cells: insect cells (baculovirus expression system)
Assay: MKNK1 kinase high ATP assay (TR-FRET)
Assay type: biochemical
Conditions: 2 mM ATP, after preincubation with MKNK1; read-out: MKNK1 IC50 (MKNK1 high ATP)
Summary of the method: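 Compound was preincubated 15 min at 22° C. with MKNK1 in 50 mM HEPES pH 7.5, 5 mM MgCl2, 1.0 mM DTT, then the reaction ran 30 min at 22° C. with 2 mM ATP and 0.06 μM biotinylated peptide (final).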

T1 sequence (Q9BUB5 1-424 isoform Q9BUB5-2 T344D): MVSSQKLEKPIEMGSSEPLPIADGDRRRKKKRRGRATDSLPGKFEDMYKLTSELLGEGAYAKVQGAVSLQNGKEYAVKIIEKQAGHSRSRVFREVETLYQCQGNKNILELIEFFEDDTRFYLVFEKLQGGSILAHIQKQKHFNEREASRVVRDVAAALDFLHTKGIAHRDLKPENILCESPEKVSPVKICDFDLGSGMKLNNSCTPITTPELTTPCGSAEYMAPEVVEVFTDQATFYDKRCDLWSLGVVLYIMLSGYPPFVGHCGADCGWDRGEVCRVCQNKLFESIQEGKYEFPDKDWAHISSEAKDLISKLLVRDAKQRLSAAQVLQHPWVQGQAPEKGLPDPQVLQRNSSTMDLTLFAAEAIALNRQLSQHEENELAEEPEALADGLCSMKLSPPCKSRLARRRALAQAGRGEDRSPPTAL

Row | Compound | IC50
1 | CS(=O)(=O)N1CCN(C(=O)C2CCc3c(sc4ncnc(Nc5ccc6[nH]ncc6c5)c34)C2)CC1 (racemic) [Example 156, (RS)-[4-(1H-indazol-5-ylamino)-5,6,7,8-tetrahydro[1]benzothieno[2,3-d]pyrimidin-7-yl][4-(methylsulfonyl)piperazin-1-yl]methanone] | 18.3 nM
2 | CCNC(=O)C1CCc2c(sc3ncnc(Nc4ccc5[nH]ncc5c4)c23)C1 (stereo not drawn) [Example 46, N-Ethyl-4-(1H-indazol-5-ylamino)-5,6,7,8-tetrahydro[1] benzothieno [2,3-d]pyrimidine-7-carboxamide] | 10 nM
3 | COc1cc2[nH]ncc2cc1Nc1ncnc2sc3c(c12)CCC(C(=O)N1CCC1)C3 (racemic) [Example 177, (RS)-Azetidin-1-yl{4-[(6-methoxy-1H-indazol-5-yl)amino]-5,6,7,8-tetrahydro[1]benzothieno[2,3-d]pyrimidin-7-yl}methanone] | 0.4 nM
4 | CC(C)Oc1cc2[nH]ncc2cc1Nc1ncnc2sc3c(c12)CCC(C(=O)N(C)CCO)C3 (racemic) [Example 230, (RS)—N-(2-Hydroxyethyl)-4-[(6-isopropoxy-1H-indazol-5-yl)amino]-N-methyl-5,6,7,8-tetrahydro[1]benzothieno[2,3-d]pyrimidine-7-carboxamide] | 0.2 nM
5 | CCOc1cc2[nH]ncc2cc1Nc1ncnc2sc3c(c12)CCC(C(=O)N(C)CCO)C3 (racemic) [Example 225, (RS)-4-[(6-Ethoxy-1H-indazol-5-yl)amino]-N-(2-hydroxyethyl)-N-methyl-5,6,7,8-tetrahydro[1]benzothieno[2,3-d]pyrimidine-7-carboxamide] | 0.3 nM
6 | COCC1CCCN1C(=O)C1CCc2c(sc3ncnc(Nc4ccc5[nH]ncc5c4)c23)C1 (racemic) [Example 204, (RS)-[4-(1H-indazol-5-ylamino)-5,6,7,8-tetrahydro[1]benzothieno[2,3-d]pyrimidin-7-yl][2-(methoxymethyl)pyrrolidin-1-yl]methanone] | 7.3 nM
7 | CCCN(C)C(=O)C1CCc2c(sc3ncnc(Nc4cc5cn[nH]c5cc4OC)c23)C1 (stereo not drawn) [Example 68, 4-[(6-Methoxy-1H-indazol-5-yl)amino]-N-methyl-N-propyl-5,6,7,8-tetrahydro[1]benzothieno[2,3-d]pyrimidine-7-carboxamide] | 0.7 nM
8 | CN(CCCO)C(=O)C1CCc2c(sc3ncnc(Nc4ccc5[nH]ncc5c4)c23)C1 (racemic) [Example 202, (RS)-N-(3-hydroxypropyl)-4-(1H-indazol-5-ylamino)-N-methyl-5,6,7,8-tetrahydro[1]benzothieno[2,3-d]pyrimidine-7-carboxamide] | 15 nM
9 | CN(C)CCCNC(=O)C1CCc2c(sc3ncnc(Nc4ccc5[nH]ncc5c4)c23)C1 (stereo not drawn) [Example 40, N-[3-(Dimethylamino)propyl]-4-(1H-indazol-5-ylamino)-5,6,7,8-tetrahydro[1] benzothieno [2,3-d]pyrimidine-7-carboxamide] | 7 nM
10 | O=C(C1CCc2c(sc3ncnc(Nc4ccc5[nH]ncc5c4)c23)C1)N1CCC1 (stereo not drawn) [Example 43, Azetidin-1-yl[4-(1H-indazol-5-ylamino)-5,6,7,8-tetrahydro[1]benzothieno [2,3-d]pyrimidin-7-yl]methanone] | 9 nM
11 | CCOc1cc2[nH]ncc2cc1Nc1ncnc2sc3c(c12)CCC(C(=O)N(C)C)C3 (racemic) [Example 254, (RS)-4-[(6-Ethoxy-1H-indazol-5-yl)amino]-N,N-dimethyl-5,6,7,8-tetrahydro[1]benzothieno[2,3-d]pyrimidine-7-carboxamide] | 1.6 nM
12 | O=C(NCc1cc[nH]n1)C1CCc2c(sc3ncnc(Nc4ccc5[nH]ncc5c4)c23)C1 (racemic) [Example 139, (RS)-4-(1H-indazol-5-ylamino)-N-(1H-pyrazol-3-ylmethyl)-5,6,7,8-tetrahydro[1]benzothieno[2,3-d]pyrimidine-7-carboxamide] | 6.9 nM
13 | N#Cc1ccc(N2CCN(C(=O)C3CCc4c(sc5ncnc(Nc6ccc7[nH]ncc7c6)c45)C3)CC2)cc1 (racemic) [Example 141, (RS)-4-(4-{[4-(1H-indazol-5-ylamino)-5,6,7,8-tetrahydro[1]benzothieno[2,3-d]pyrimidin-7-yl]carbonyl}piperazin-1-yl)benzonitrile] | 17.4 nM
14 | Cn1ccnc1CNC(=O)C1CCc2c(sc3ncnc(Nc4ccc5[nH]ncc5c4)c23)C1 (racemic) [Example 165, (RS)-4-(1H-indazol-5-ylamino)-N-[(1-methyl-1H-imidazol-2-yl)methyl]-5,6,7,8-tetrahydro[1]benzothieno[2,3-d]pyrimidine-7-carboxamide] | 16.8 nM
15 | CCN(CCO)C(=O)C1CCc2c(sc3ncnc(Nc4cc5cn[nH]c5cc4OC)c23)C1 (racemic) [Example 171, (RS)—N-Ethyl-N-(2-hydroxyethyl)-4-[(6-methoxy-1H-indazol-5-yl)amino]-5,6,7,8-tetrahydro[1]benzothieno[2,3-d]pyrimidine-7-carboxamide] | 0.4 nM
16 | COc1cc2[nH]ncc2cc1Nc1ncnc2sc3c(c12)CCC(C(=O)N1C[C@@H](O)[C@H](O)C1)C3 (mixture of isomers) [Example 243, [(3R,4R)-3,4-Dihydroxypyrrolidin-1-yl]{(7RS)-4-[(6-methoxy-1H-indazol-5-yl)amino]-5,6,7,8-tetrahydro[1]benzothieno[2,3-d]pyrimidin-7-yl}methanone] | 0.3 nM
17 | CN(CCCCO)C(=O)C1CCc2c(sc3ncnc(Nc4ccc5[nH]ncc5c4)c23)C1 (racemic) [Example 193, (RS)-N-(4-hydroxybutyl)-4-(1H-indazol-5-ylamino)-N-methyl-5,6,7,8-tetrahydro[1]benzothieno[2,3-d]pyrimidine-7-carboxamide] | 16.8 nM
18 | O=C(NCCc1c[nH]cn1)C1CCc2c(sc3ncnc(Nc4ccc5[nH]ncc5c4)c23)C1 (racemic) [Example 92, (RS)-N-[2-(1H-imidazol-4-yl)ethyl]-4-(1H-indazol-5-ylamino)-5,6,7,8-tetrahydro[1]benzothieno[2,3-d]pyrimidine-7-carboxamide] | 9.8 nM
19 | CC(=O)N1CCN(CCNC(=O)C2CCc3c(sc4ncnc(Nc5ccc6[nH]ncc6c5)c34)C2)CC1 (racemic) [Example 168, (RS)-N-[2-(4-acetylpiperazin-1-yl)ethyl]-4-(1H-indazol-5-ylamino)-5,6,7,8-tetrahydro[1]benzothieno[2,3-d]pyrimidine-7-carboxamide] | 17.4 nM
20 | CCOc1cc2[nH]ncc2cc1Nc1ncnc2sc3c(c12)CCC(C(=O)N1CCN(CC2CC2)CC1)C3 (racemic) [Example 247, (RS)-[4-(Cyclopropylmethyl)piperazin-1-yl]{4-[(6-ethoxy-1H-indazol-5-yl)amino]-5,6,7,8-tetrahydro[1]benzothieno[2,3-d]pyrimidin-7-yl}methanone] | 0.3 nM
21 | O=C(C1CCc2c(sc3ncnc(Nc4ccc5[nH]ncc5c4)c23)C1)N1CCC(CO)CC1 (racemic) [Example 132, (RS)-[4-(hydroxymethyl)piperidin-1-yl][4-(1H-indazol-5-ylamino)-5,6,7,8-tetrahydro[1]benzothieno[2,3-d]pyrimidin-7-yl]methanone] | 10.3 nM
22 | COCCN(C)C(=O)C1CCc2c(sc3ncnc(Nc4ccc5[nH]ncc5c4)c23)C1 (racemic) [Example 130, (RS)-4-(1H-indazol-5-ylamino)-N-(2-methoxyethyl)-N-methyl-5,6,7,8-tetrahydro[1]benzothieno[2,3-d]pyrimidine-7-carboxamide] | 9.5 nM
23 | CCOc1cc2[nH]ncc2cc1Nc1ncnc2sc3c(c12)CCC(C(=O)N(C)CCNC(=O)OC(C)(C)C)C3 (racemic) [Example 268, (RS)-tert-Butyl {2-[({4-[(6-ethoxy-1H-indazol-5-yl)amino]-5,6,7,8-tetrahydro[1]benzothieno[2,3-d]pyrimidin-7-yl}carbonyl)(methyl)amino]ethyl}carbamate] | 0.4 nM
24 | O=C(NCCN1CCNC1=O)C1CCc2c(sc3ncnc(Nc4ccc5[nH]ncc5c4)c23)C1 (racemic) [Example 125, (RS)-4-(1H-indazol-5-ylamino)-N-[2-(2-oxoimidazolidin-1-yl)ethyl]-5,6,7,8-tetrahydro[1]benzothieno[2,3-d]pyrimidine-7-carboxamide] | 10.5 nM
25 | CC(C)Oc1cc2[nH]ncc2cc1Nc1ncnc2sc3c(c12)CCC(C(=O)N1CCC1)C3 (racemic) [Example 219, (RS)-Azetidin-1-yl(4-{[6-(propan-2-yloxy)-1H-indazol-5-yl]amino}-5,6,7,8-tetrahydro[1]benzothieno[2,3-d]pyrimidin-7-yl)methanone] | 0.5 nM
26 | COc1cccc(NC(=O)C2CCc3c(sc4ncnc(Nc5ccc6[nH]ncc6c5)c34)C2)c1 (stereo not drawn) [Example 13, 4-(1H-indazol-5-ylamino)-N-(3-methoxyphenyl)-5,6,7,8-tetrahydro[1]benzothieno[2,3-d]pyrimidine-7-carboxamide] | 7 nM
27 | O=C(Nc1ccccc1)C1CCc2c(sc3ncnc(Nc4ccc5[nH]ncc5c4)c23)C1 (stereo not drawn) [Example 5, 4-(1H-Indazol-5-ylamino)-N-phenyl-5,6,7,8-tetrahydro[1]benzothieno[2,3-d]pyrimidine-7-carboxamide] | 9 nM
28 | CN(C)C(=O)C1CCc2c(sc3ncnc(Nc4cc5cn[nH]c5cc4OCCCCl)c23)C1 (racemic) [Example 267, (RS)-4-{[6-(3-Chloropropoxy)-1H-indazol-5-yl]amino}-N,N-dimethyl-5,6,7,8-tetrahydro[1]benzothieno[2,3-d]pyrimidine-7-carboxamide] | 2.2 nM
29 | O=C(NC1(c2ccccc2)CC1)C1CCc2c(sc3ncnc(Nc4ccc5[nH]ncc5c4)c23)C1 (racemic) [Example 147, (RS)-4-(1H-indazol-5-ylamino)-N-(1-phenylcyclopropyl)-5,6,7,8-tetrahydro[1]benzothieno[2,3-d]pyrimidine-7-carboxamide] | 3.7 nM
30 | COc1ccc(NC(=O)C2CCc3c(sc4ncnc(Nc5ccc6[nH]ncc6c5)c34)C2)cc1 (stereo not drawn) [Example 14, 4-(1H-indazol-5-ylamino)-N-(4-methoxyphenyl)-5,6,7,8-tetrahydro[1]benzothieno[2,3-d]pyrimidine-7-carboxamide] | 7 nM
